Consider 46 compounds from patent US7179825B2, “Retinoic acid mimetic anilides” (Janssen Pharmaceutica N.V., priority 1997, dated 2007).

By IC50 is commonly meant the concentration needed to halve the response being measured.

Test [1] deals with metabolism of retinoic acid in human breast cancer cells. Description: Inhibition of retinoic acid (RA) metabolism (Example C.1). Type of test: cell-based. As to conditions: MCF-7 human breast cancer cells, 3H-RA as substrate, concentration needed to reduce the amount of metabolites to 50% of the control. Put shortly:
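MCF-7 cells, pre-stimulated with RA the day before, incubated with ³H-RA substrate and test compound in 1% DMSO. Polar ³H-metabolites separated from unmetabolized RA and counted by scintillation. IC50 is the concentration cutting metabolite formation to 50% of control, with blank run alongside.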

Test [2] relates to Ovariectomized rats. Description: Vaginal keratinization test on ovariectomized rats (Example C.2). Type of test: in vivo. As to conditions: estradiol undecylate induced keratinization, per os once daily on days 1-3, active dose = 50% of rats show complete suppression; for minimal effective dose: Rattus norvegicus, po, read-out: LAD (lowest active dose). Put shortly:
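Ovariectomized rats given s.c. estradiol undecylate (100 μg per 100 g body weight in sesame oil), then oral compound once daily on days 1-3 (vehicle PEG 200). Vaginas assessed histologically one day after last dose; lowest active dose (mg/kg) is the dose giving complete keratinization suppression in 50% of rats.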

Take `CCC(CC)C(c1ccc(NC(=O)Cc2cc(C)c(C)c(C)c2)cc1)n1cncn1` (racemic) [Compound 81]: the IC50 in test [1] worked out at 0.231 nM. The “LAD (lowest active dose)” value in test [2] is given as 2.50 mg/kg.
Take `CCOc1ccc(CC(=O)Nc2ccc(C(C(CC)CC)n3cncn3)cc2)cc1OCC` (racemic) [Compound 82]: the IC50 in test [1] turned out to be 1.16 nM. Besides, the “LAD (lowest active dose)” value in test [2] is on record as 2.50 mg/kg.
Turning to `CCC(CC)C(c1ccc(NC(=O)Cc2ccc(Cl)c(OC)c2)cc1)n1cncn1` (racemic) [Compound 83], the IC50 in test [1] is 0.162 nM. Further, the “LAD (lowest active dose)” value in test [2] is reported as above 2.50 mg/kg.
The like results for `CCC(CC)C(c1ccc(NC(=O)Cc2ccc(C)c(OC)c2)cc1)n1cncn1` (racemic) [Compound 84] were, in that order, 1.74 nM and above 2.50 mg/kg.
The corresponding values for `CCC(CC)C(c1ccc(NC(=O)Cc2ccc(Cl)cc2)cc1)n1ccnc1` (racemic) [Compound 87] are 0.28 nM and 1.25 mg/kg.
The corresponding values for `CCC(CC)C(c1ccc(NC(=O)Cc2ccc(F)cc2)cc1)n1ccnc1` (racemic) [Compound 88] are 0.148 nM and 2.50 mg/kg.
For `CCC(CC)C(c1ccc(NC(=O)Cc2ccccc2OC)cc1)n1ccnc1` (racemic) [Compound 89], in test [1], the IC50 was determined as 0.131 nM. Moreover, the “LAD (lowest active dose)” value in test [2] turned out to be 2.50 mg/kg.
The corresponding values for `CCC(CC)C(c1ccc(NC(=O)Cc2cccc(OC)c2)cc1)n1ccnc1` (racemic) [Compound 90] are 2.36 nM and 2.50 mg/kg.
Regarding `CCC(CC)C(c1ccc(NC(=O)Cc2ccc(OC)c(OC)c2)cc1)n1ccnc1` (racemic) [Compound 91], the IC50 in test [1] is 0.935 nM. The “LAD (lowest active dose)” value in test [2] was found to be 2.50 mg/kg.
The corresponding values for `CCC(CC)C(c1ccc(NC(=O)Cc2ccc(OC(C)C)cc2)cc1)n1ccnc1` (racemic) [Compound 92] are 2.21 nM and 5.00 mg/kg.
The corresponding values for `CCCOc1ccc(CC(=O)Nc2ccc(C(C(CC)CC)n3ccnc3)cc2)cc1` (racemic) [Compound 93] are 1.59 nM and 2.50 mg/kg.
The corresponding values for `CCC(CC)C(c1ccc(NC(=O)Cc2ccc(C)cc2)cc1)n1ccnc1` (racemic) [Compound 94] are 1.06 nM and 5.00 mg/kg.
As for `CCOc1ccc(CC(=O)Nc2ccc(C(C(CC)CC)n3ccnc3)cc2)cc1` (racemic) [Compound 95], the IC50 in test [1] was 1.48 nM. Besides, in test [2], the “LAD (lowest active dose)” value is on record as 5.00 mg/kg.
The corresponding values for `CCCCOc1ccc(CC(=O)Nc2ccc(C(C(CC)CC)n3ccnc3)cc2)cc1` (racemic) [Compound 96] are 1.09 nM and 2.50 mg/kg.
The corresponding values for `CCC(CC)C(c1ccc(NC(=O)Cc2ccc(O)c(OC)c2)cc1)n1ccnc1.O=C(O)C(=O)O` (racemic) [Compound 97] are 1.32 nM and 2.50 mg/kg.
Regarding `CCC(CC)C(c1ccc(NC(=O)Cc2cc(OC)ccc2OC)cc1)n1ccnc1` (racemic) [Compound 98], the 50% inhibitory concentration (IC50) in test [1] is 1.64 nM. The “LAD (lowest active dose)” value in test [2] came to 5.00 mg/kg.
The like results for `CCC(CC)C(c1ccc(NC(=O)Cc2ccc(N(C)C)cc2)cc1)n1ccnc1` (racemic) [Compound 99] were, in that order, 5.77 nM and 2.50 mg/kg.
The corresponding values for `CCC(CC)C(c1ccc(NC(=O)Cc2cccc(OC)c2OC)cc1)n1ccnc1` (racemic) [Compound 102] are 0.0678 nM and 5.00 mg/kg.
The corresponding values for `CCC(CC)C(c1ccc(NC(=O)Cc2ccc(Oc3ccccc3)cc2)cc1)n1ccnc1` (racemic) [Compound 103] are 7.11 nM and above 2.50 mg/kg.
Regarding `CCC(CC)C(c1ccc(NC(=O)Cc2ccccc2C)cc1)n1ccnc1` (racemic) [Compound 104], the IC50 in test [1] was 0.0407 nM. Moreover, in test [2], the “LAD (lowest active dose)” value amounted to 2.50 mg/kg.
Turning to `CCC(CC)C(c1ccc(NC(=O)Cc2ccc(OC)cc2)cc1)n1ccnc1` (racemic) [Compound 105], the IC50 in test [1] was 0.0516 nM. Also, in test [2], the “LAD (lowest active dose)” value is given as 2.50 mg/kg.
The corresponding values for `CCC(CC)C(c1ccc(NC(=O)Cc2cc(C)ccc2C)cc1)n1ccnc1` (racemic) [Compound 106] are 1.69 nM and 2.50 mg/kg.
The like results for `CCC(CC)C(c1ccc(NC(=O)Cc2ccccc2O)cc1)n1ccnc1` (racemic) [Compound 107] were, in that order, 1.44 nM and above 2.50 mg/kg.
On to `CCC(CC)C(c1ccc(NC(=O)Cc2cccc(O)c2)cc1)n1ccnc1.O=C(O)C(=O)O` (racemic) [Compound 109], for which, in test [1], the IC50 was 0.321 nM. For the same compound, in test [2], the “LAD (lowest active dose)” value stood at 2.50 mg/kg.
The corresponding values for `CCC(CC)C(c1ccc(NC(=O)Cc2ccc(C)c(OC)c2)cc1)n1ccnc1` (racemic) [Compound 110] are 0.953 nM and above 2.50 mg/kg.
The corresponding values for `CCC(CC)C(c1ccc(NC(=O)Cc2ccc(O)cc2)cc1)n1ccnc1` (racemic) [Compound 111] are 1.03 nM and above 2.50 mg/kg.
The like results for `CCC(CC)C(c1ccc(NC(=O)Cc2ccc(C)c(C)c2)cc1)n1ccnc1` (racemic) [Compound 112] were, in that order, 0.989 nM and 2.50 mg/kg.
In the case of `CCC(CC)C(c1ccc(NC(=O)Cc2ccc(Cl)cc2OC)cc1)n1ccnc1` (racemic) [Compound 113], in test [1], the IC50 is 0.852 nM. Also, the “LAD (lowest active dose)” value in test [2] is on record as above 2.50 mg/kg.
The corresponding values for `CCC(CC)C(c1ccc(NC(=O)Cc2cccc(OC)c2OCc2ccccc2)cc1)n1ccnc1` (racemic) [Compound 115] are 8.17 nM and above 2.50 mg/kg.
The corresponding values for `CCC(CC)C(c1ccc(NC(=O)Cc2ccc(OC)c(Cl)c2)cc1)n1ccnc1` (racemic) [Compound 116] are 0.678 nM and 2.50 mg/kg.
The corresponding values for `CCC(CC)C(c1ccc(NC(=O)Cc2ccc(O)c(Cl)c2)cc1)n1ccnc1` (racemic) [Compound 117] are 0.255 nM and above 2.50 mg/kg.
In the case of `CCOc1ccc(CC(=O)Nc2ccc(C(C(CC)CC)n3ccnc3)cc2)cc1Cl` (racemic) [Compound 118], in test [1], the IC50 was found to be 2.24 nM. Also, the “LAD (lowest active dose)” value in test [2] is reported as 2.50 mg/kg.
Regarding `CCC(CC)C(c1ccc(NC(=O)Cc2ccc(OCc3ccccn3)cc2)cc1)n1ccnc1` (racemic) [Compound 121], in test [1], the IC50 stood at 0.914 nM. Further, the “LAD (lowest active dose)” value in test [2] is given as above 2.50 mg/kg.
The corresponding values for `CCC(CC)C(c1ccc(NC(=O)Cc2cc(C)ccc2OC)cc1)n1ccnc1` (racemic) [Compound 122] are 2.4 nM and above 2.50 mg/kg.
With `CCC(CC)C(c1ccc(NC(=O)Cc2ccc(OC)c(C)c2)cc1)n1ccnc1` (racemic) [Compound 123], the IC50 in test [1] is 0.0247 nM. In test [2], the “LAD (lowest active dose)” value was determined as 2.50 mg/kg.
As to `CCOc1ccc(CC(=O)Nc2ccc(C(C(CC)CC)n3ccnc3)cc2)cc1C` (racemic) [Compound 125], in test [1], the IC50 turned out to be 0.194 nM. Further, in test [2], the “LAD (lowest active dose)” value came to 2.50 mg/kg.
As to `CCC(CC)C(c1ccc(NC(=O)Cc2ccc(OC)cc2OC)cc1)n1ccnc1` (racemic) [Compound 126], the IC50 in test [1] was below 0.01 nM. In addition, in test [2], the “LAD (lowest active dose)” value was 2.50 mg/kg.
For `C/C(=C\c1ccccc1)C(=O)Nc1ccc(C(C(C)C)n2cncn2)cc1` (racemic) [Compound 154, (±)-(E)-2-methyl-N-[4-[2-methyl-1-(1H-1,2,4-triazol-1-yl)propyl]phenyl]-3-phenyl-2-propenamide], in test [1] (MCF7), the IC50 is 4.14 nM. Moreover, the minimal effective dose in test [2] amounted to 5 mg/kg.
For the compound `CC(C)C(c1ccc(NC(=O)/C=C/c2ccccc2)cc1)n1cncn1` (racemic) [Compound 155], the IC50 in test [1] was found to be 50.1 nM. In addition, the “LAD (lowest active dose)” value in test [2] is on record as above 10.00 mg/kg.
Turning to `CC(=Cc1cccc(Cl)c1)C(=O)Nc1ccc(C(C(C)C)n2cncn2)cc1` (racemic) [Compound 156], in test [1], the IC50 was 31 nM. Besides, in test [2], the “LAD (lowest active dose)” value was above 10.00 mg/kg.
The corresponding values for `C/C(=C\c1ccc(F)cc1)C(=O)Nc1ccc(C(C(C)C)n2cncn2)cc1` (racemic) [Compound 157] are 84.8 nM and above 10.00 mg/kg.
Consider `CC(C)C(c1ccc(NC(=O)C(F)=Cc2ccccc2)cc1)n1cncn1` (racemic) [Compound 160], for which the IC50 in test [1] amounted to 86.5 nM. Also, the “LAD (lowest active dose)” value in test [2] is recorded as 10.00 mg/kg.
The corresponding values for `CCC(=O)Nc1ccc(C(C(C)C)n2ccnc2)cc1` (racemic) [Compound 163] are 2.36 nM and 20.00 mg/kg.
Turning to `CC(Cc1ccccc1)C(=O)Nc1ccc(C(C(C)C)n2ccnc2)cc1` (racemic) [Compound 164, (±)-N-[4-[1-(1H-imidazol-1-yl)-2-methylpropyl]phenyl]-α-methylbenzenepropanamide], in test [1] (MCF7), the IC50 stood at 8.15 nM. Besides, in test [2], the minimal effective dose turned out to be 20 mg/kg.
Regarding `CC(C)C(c1ccc(NC(=O)c2ccccc2)cc1)n1ccnc1` (racemic) [Compound 166], in test [1], the IC50 amounted to 1.75 nM. In addition, the “LAD (lowest active dose)” value in test [2] worked out at 5.00 mg/kg.
For the compound `CC(C)C(c1ccc(NC(=O)c2cc3ccccc3o2)cc1)n1ccnc1` (racemic) [Compound 167], the IC50 in test [1] is 4.16 nM. For the same compound, the “LAD (lowest active dose)” value in test [2] turned out to be 10.00 mg/kg.
